≈ marks a conversion by molar mass, not a printed value. Entries after “also recorded” stand apart in the source; their conditions may differ.
Assays:
pancreatic lipase [1] = details: cited from earlier work
pancreatic lipase [2] = target: T1, pancreatic lipase (Sus scrofa, UniProt P00591); assay: Fluorescence spectrometry (tryptophan fluorescence quenching, Stern-Volmer); details: for ΔH (enthalpy) / ΔS (entropy change): Van't Hoff, 298 and 310 K
T1 sequence (P00591 1-450): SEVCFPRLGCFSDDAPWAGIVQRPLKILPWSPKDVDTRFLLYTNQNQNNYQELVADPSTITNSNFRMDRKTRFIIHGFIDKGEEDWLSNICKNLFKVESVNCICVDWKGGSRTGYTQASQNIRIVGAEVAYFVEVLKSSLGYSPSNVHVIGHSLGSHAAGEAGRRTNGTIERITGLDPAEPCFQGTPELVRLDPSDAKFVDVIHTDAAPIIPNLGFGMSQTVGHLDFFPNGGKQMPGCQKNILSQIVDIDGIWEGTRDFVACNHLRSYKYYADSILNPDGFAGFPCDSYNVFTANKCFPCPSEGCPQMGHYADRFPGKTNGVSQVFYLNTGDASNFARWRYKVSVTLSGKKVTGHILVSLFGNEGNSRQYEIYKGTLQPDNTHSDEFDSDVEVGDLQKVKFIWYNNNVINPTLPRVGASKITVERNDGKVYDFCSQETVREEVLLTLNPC

pancreatic lipase [3] = target: T1, pancreatic lipase; assay: Circular dichroism measurement of secondary structure; set-up: species or system porcine; details: for β-Turn (%) of pancreatic lipase / α-Helix (%) of pancreatic lipase / β-Sheet (%) of pancreatic lipase / Random Coil (%) of pancreatic lipase: lipase:compound molar ratio 1:1, 37 °C, 5 min; for β-Turn (%) of pancreatic lipase: lipase alone 14.8; for α-Helix (%) of pancreatic lipase: lipase alone 17.7; for β-Sheet (%) of pancreatic lipase: lipase alone 25.4; for Random Coil (%) of pancreatic lipase: lipase alone 42.1; for decrease of β-sheet of pancreatic lipase / increase of α-helix content of pancreatic lipase: relative to pancreatic lipase alone
pancreatic lipase [4] = target: T1, pancreatic lipase; assay: Enzyme inhibition kinetics (Lineweaver-Burk analysis); type: biochemical, porcine; details: for inhibition type: Lineweaver-Burk plots, Vmax unchanged; for reversibility of inhibition: plots of v versus enzyme concentration
pancreatic lipase [5] = target: T1, pancreatic lipase; assay: Affinity screening by ultrafiltration coupled with HPLC; type: binding, porcine; details: from change of HPLC peak area at 425 nm, turmeric extract, versus heat-inactivated enzyme
[6] = target: T2, pancreatic lipase from porcine pancreas type II (Sus scrofa, UniProt P00591); assay: Pancreatic lipase inhibition in vitro (p-nitrophenyl butyrate hydrolysis, absorbance 410 nm); type: biochemical; details: curcuminoid chemical standards
T2 sequence (P00591 1-450): T1 sequence (P00591 1-450)

SMILES | Ka (binding constant), bound stated (pancreatic lipase [2]) [L/mol] | Kq, compared with maximum dynamic quenching constant (pancreatic lipase [2]) [M⁻¹ s⁻¹] | binding sites (pancreatic lipase [2]) | Kq (fluorescence-quenching rate constant) (pancreatic lipase [2]; 298 K) | n (binding sites) (pancreatic lipase [2]; 298 K) | ΔG (free energy) (pancreatic lipase [2]; 298 K) [kcal/mol] | Kq (fluorescence-quenching rate constant) (pancreatic lipase [2]; 310 K) | n (binding sites) (pancreatic lipase [2]; 310 K) | ΔG (free energy) (pancreatic lipase [2]; 310 K) [kcal/mol] | ΔH (enthalpy) (pancreatic lipase [2]) [kcal/mol] | ΔS (entropy change) (pancreatic lipase [2]) [J·mol^−1·K] | β-Turn (%) of pancreatic lipase (pancreatic lipase [3]) [%] | α-Helix (%) of pancreatic lipase (pancreatic lipase [3]) [%] | β-Sheet (%) of pancreatic lipase (pancreatic lipase [3]) [%] | Random Coil (%) of pancreatic lipase (pancreatic lipase [3]) [%] | decrease of β-sheet of pancreatic lipase (pancreatic lipase [3]) [%] | increase of α-helix content of pancreatic lipase (pancreatic lipase [3]) [%] | inhibition type (pancreatic lipase [4]) | reversibility of inhibition (pancreatic lipase [4]) | binding rate to pancreatic lipase (pancreatic lipase [5]) [%] | also measured
C=C(C)[C@@H]1CC[C@]2(C(=O)O[C@@H]3O[C@H](CO[C@@H]4O[C@H](CO)[C@@H](O[C@@H]5O[C@@H](C)[C@H](O)[C@@H](O)[C@H]5O)[C@H](O)[C@H]4O)[C@@H](O)[C@H](O)[C@H]3O)CC[C@]3(C)[C@H](C[C@H]4OC(=O)C[C@@H](O)[C@]5(C)[C@@H]4[C@@]3(C)CC[C@H]5C(=C)C)[C@@H]12 [chiisanoside] |  |  |  |  |  |  |  |  |  |  |  |  |  |  |  |  |  |  |  |  | IC50 (pancreatic lipase [1]): 740 µg/mL (≈ 775 µM)
COc1cc(/C=C/C(=O)CC(=O)/C=C/c2ccc(O)c(OC)c2)ccc1O [curcumin, Curcumin] | > 10000 | > 2e+10 | ~1 | 1.94 ± 0.10 ×10^12 L·mol^−1·s^−1 | 1.14 ± 0.02 | -5.762 ± 0.0311 | 4.28 ± 0.25 ×10^12 L·mol^−1·s^−1 | 1.2 ± 0.02 | -6.319 ± 0.0598 | -8.098 ± 0.0717 | −23.99 ± 0.10 | 15.7 | 34.3 | 15.3 | 34.7 | 39.76 | 93.78 | competitive inhibitors; also recorded: reversible competitive inhibition | reversible | 54.69 | 
COc1cc(/C=C/C(O)=C/C(=O)/C=C/c2ccc(O)cc2)ccc1O [demethoxycurcumin, Demethoxycurcumin] | > 10000 | > 2e+10 | ~1 | 1.64 ± 0.13 ×10^12 L·mol^−1·s^−1 | 1.12 ± 0.04 | -5.564 ± 0.0335 | 3.61 ± 0.24 ×10^12 L·mol^−1·s^−1 | 1.40 ± 0.01 | -6.09 ± 0.0502 | -7.483 ± 0.0526 | −18.82 ± 0.09 | 16.5 | 26.4 | 16.9 | 40.2 | 33.46 | 49.15 | competitive inhibitors; also recorded: reversible competitive inhibition | reversible | 49.33 | maximum emission peak of pancreatic lipase after addition (blueshift from 350 nm) (pancreatic lipase [2]; excitation 280 nm): 342 nm; IC50 [6]: 3310 µM; Ki (pancreatic lipase [4]; pancreatic lipase 5 mg/mL, p-nitrophenyl butyrate substrate, read-out: Ki (inhibition constant)): 840 ± 40 µM
O=C(/C=C/c1ccc(O)cc1)CC(=O)/C=C/c1ccc(O)cc1 [bisdemethoxycurcumin, Bisdemethoxycurcumin] | > 10000 |  | ~1 | 1.6 ± 0.07 ×10^12 L·mol^−1·s^−1 | 1.13 ± 0.03 | -5.476 ± 0.0574 |  |  | -5.98 ± 0.0359 |  | −14.33 ± 0.14 | 15.9 | 21.3 | 21.7 |  | 14.57 |  | competitive inhibitors; also recorded: reversible competitive inhibition | reversible |  | 
